Here are results for 3 compounds from patent US12240813B2, “Deuterated tryptamine derivatives and methods of use” (priority 2020, dated 2025).

A short description of data set [1]: PK study in rats, cassette dosing of deuterated and non-deuterated analog. It counts as in vivo. Conditions: rat; 5 mg/kg; oral gavage or via catheter; % change vs. non-deuterated material. The protocol: (§1) The key PK parameters (presented as a % change vs. non-deuterated materials) are presented in Table 3 to include half-life (T1/2), area under the curve (AUC), bioavailability (F) and blood-to-plasma ration (BPR). Pharmacokinetics of the deuterated tryptamines was studied in rats. In a typical experiment, run as a cassette dosing, two groups of 5 Wistar female rats (200-250 g) with surgically inserted jugular vein catheter (Charles River, Andover, MA) were fasted for 12 h and then administered 5 mg/kg of the deuterated and 5 mg/kg of the related non-deuterated analog, by oral gavage or via a catheter for each group. At time points 0, 15, 30, 60 min, and 2, 4, 8, and 24 h, the resulting plasma was analyzed for the parent molecule using LC/MS spectroscopy. Two separate groups of 5 animals were used for determining blood-to-plasma ratio (BPR). Each group was sacrificed at time points 15 and 30 min, respectively, and the concentration of the parent drug was determined in the brain and plasma by LC/MS spectroscopy.

A further data set has as its target T1, hrMAO-A (Homo sapiens, UniProt P21397).
T1 construct: purchased XenoTech Lot #8213001
T1 sequence (P21397 1-527): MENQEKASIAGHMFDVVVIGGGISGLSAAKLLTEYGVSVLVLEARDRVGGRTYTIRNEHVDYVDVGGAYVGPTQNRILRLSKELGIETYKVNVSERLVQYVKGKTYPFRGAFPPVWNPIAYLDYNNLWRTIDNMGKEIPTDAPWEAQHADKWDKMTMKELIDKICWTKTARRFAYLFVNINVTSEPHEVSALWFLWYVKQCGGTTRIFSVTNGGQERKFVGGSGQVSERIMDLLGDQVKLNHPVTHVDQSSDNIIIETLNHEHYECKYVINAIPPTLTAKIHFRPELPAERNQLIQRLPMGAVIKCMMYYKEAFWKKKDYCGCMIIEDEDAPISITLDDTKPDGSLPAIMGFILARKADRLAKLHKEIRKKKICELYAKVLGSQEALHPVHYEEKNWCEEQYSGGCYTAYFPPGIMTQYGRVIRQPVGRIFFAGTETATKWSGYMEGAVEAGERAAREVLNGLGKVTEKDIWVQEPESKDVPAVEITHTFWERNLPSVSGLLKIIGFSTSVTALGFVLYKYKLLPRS
The data set can be described thus: Metabolic stability in the presence of hrMAO-A. It counts as in vitro ADME. Conditions: MAO-A; values in square brackets are within 10% difference (assay's accuracy), no deuteration effect. As for the experimental part: The reaction mixture was prepared as described below. The co-dosed TAs were added into the reaction mixture at a final concentration of 1 microM each. The positive control, kynuramine (25 microM), was run simultaneously with the TAs in a separate reaction. The reaction mixture (without TAs or kynuramine) was equilibrated in a shaking water bath at 37° C. for 5 minutes. The reaction was initiated by the addition of the TAs or kynuramine, and the mixture was incubated in a shaking water bath at 37° C. Aliquots (100 microL) of the TA reaction mixture were withdrawn at 0, 5, 10, 20, 30, 60, and 120 minutes. Aliquots (100 microL) of the positive control reaction mixture were withdrawn at 0 and 30 minutes. TA and kynuramine samples were immediately combined with 100 microL of ice-cold 100% MeCN containing 0.1% formic acid and IS to terminate the reaction. The samples were then mixed and centrifuged to precipitate proteins. All TA samples were assayed by LC-HRAMS. The PARR (analyte to IS) at each time point was compared to the PARR at time 0 to determine the percent remaining at each time point. Reaction composition: hrMAO 0.02 mg/mL; Potassium Phosphate, pH 7.4 100 mM; Magnesium Chloride 5 mM; Test Articles (each) 1 microM.

For the next data set, the system named is rat liver microsomes. The data set can be described thus: Metabolic stability in rat liver microsomes (RLM). Background: Liver microsomes are vesicles of endoplasmic reticulum, rich in cytochrome P450 enzymes.
Data set [2] is described as follows: BPR: parent drug in brain and plasma of rats. It is filed as in vivo. Conditions: rat, % change vs. non-deuterated material. As for the experimental part:
as §1

For data set [3] the following is noted: oral, cited from earlier work.

For `[2H]C([2H])(Cc1c[nH]c2ccc(OC)cc12)N(C)C` [5-MeO-DMT-α,α-d2], in data set [1], the “Deuterium Kinetic Isotope Effect (% change), AUC” value is recorded as 60% and the “Deuterium Kinetic Isotope Effect (% change), T1/2” value was found to be 30%. The “MAO, % (half-life as % vs. the related nondeuterated compound)” value at hrMAO-A worked out at 227%. Besides, in the data set on rat liver microsomes (RLM, values in square brackets are within 10% difference (assay's accuracy), no deuteration effect), the “RLM, % (half-life as % vs. the related nondeuterated compound)” value turned out to be 185%. In addition, the “collective kinetic deuterium isotope effect (reaction rate decrease for deuterated vs. non-deuterated molecule)” value with rat liver microsomes (rat liver microsomes, 0 to 60 min, disappearance of parent peak) is recorded as 150-200%. Further, in data set [2], the “Deuterium Kinetic Isotope Effect (% change), BPR, 15 min” value is recorded as 120% and the “Deuterium Kinetic Isotope Effect (% change), BPR, 30 min” value came to 180%.
Turning to `[2H]C([2H])(Cc1c[nH]c2cccc(O)c12)N(C)C` [PI-α,α-d2], in data set [1], the “Deuterium Kinetic Isotope Effect (% change), AUC” value is 75% and the “Deuterium Kinetic Isotope Effect (% change), T1/2” value came out at 50%. In data set [2], the “Deuterium Kinetic Isotope Effect (% change), BPR, 15 min” value came out at 100% and the “Deuterium Kinetic Isotope Effect (% change), BPR, 30 min” value is recorded as 150%.
Consider `COc1cc(CCNCc2ccccc2OC)c(OC)cc1Cl` [2C—C—NBOMe, 2-(4-Chloro-2,5-dimethoxyphenyl)-N-[(2-methoxyphenyl)methyl]ethan-1-amine], for which the “very strong psychedelic doses” value in data set [3] is 500 to 700 µg. Also, the orally active dose in data set [3] (doses as low as) was ≥ 25 µg.
